Test results published in the supplement of paper PMC10307832.

How the values were obtained:
Assay in all cases: relative viability (nuclei count vs DMSO), 5 days (fraction); higher = more cells survive
[1] = compound: CCOC1=CC=CC=C1N=NC2=C(NN(C2=O)C3=NC(=CS3)C4=CC=CC=C4)C [BAM7] + COc1cccc2cc(-c3nc([C@H]4CC[C@H](C(=O)O)CC4)n4ncnc(N)c34)[nH]c12 [OSI-027] (partner 0.5 µM)
Summary of the method: (§1)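 For relative viability, nuclei counts in treated wells were divided by those in vehicle wells. Lung cancer cell lines had been pin-tool dosed in 1536-well plates the day after seeding and cultured for 5 days, then fixed and stained in one step (final 0.05% Triton X-100, 1% formaldehyde, 1 ug/ml Hoechst) and imaged at 4×. Doses were one drug alone or a fixed anchor-drug dose plus five library-drug doses (not always all listed) in √10 steps, and values are duplicate-plate medians.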

[2] = compound: CCOC1=CC=CC=C1N=NC2=C(NN(C2=O)C3=NC(=CS3)C4=CC=CC=C4)C [BAM7] + O=C(CCCCCCC(=O)Nc1ccccc1)NO [Vorinostat] (partner 1 µM)
Summary of the method: as §1

[3] = compound: CCn1c(-c2nonc2N)nc2c(C#CC(C)(C)O)ncc(OC[C@H]3CCCNC3)c21 + CC1(C)CCC(c2ccc(Cl)cc2)=C(CN2CCN(c3ccc(C(=O)NS(=O)(=O)c4ccc(N[C@H](CCN5CCOCC5)CSc5ccccc5)c(S(=O)(=O)C(F)(F)F)c4)cc3)CC2)C1 [Navitoclax] (partner 0.5 µM)
Summary of the method: as §1

[4] = compound: CCn1c(-c2nonc2N)nc2c(C#CC(C)(C)O)ncc(OC[C@H]3CCCNC3)c21 + C[C@]1(O)C[C@@H](c2nc(-c3ccc4ccc(-c5ccccc5)nc4c3)c3c(N)nccn32)C1 [Linsitinib] (partner 1 µM)
Summary of the method: as §1

Cell Line	relative viability ([1]; first compound 0.5 µM)	relative viability ([1]; first compound 5 µM)	relative viability ([1]; first compound 15.81 µM)	relative viability ([1]; first compound 50 µM)	relative viability ([2]; first compound 0.5 µM)	relative viability ([2]; first compound 5 µM)	relative viability ([2]; first compound 15.81 µM)	relative viability ([2]; first compound 50 µM)	relative viability ([3]; first compound 0.01 µM)	relative viability ([3]; first compound 0.03162 µM)	relative viability ([3]; first compound 0.1 µM)	relative viability ([3]; first compound 0.3162 µM)	relative viability ([3]; first compound 1 µM)	relative viability ([4]; first compound 0.01 µM)	relative viability ([4]; first compound 0.03162 µM)	relative viability ([4]; first compound 0.1 µM)	relative viability ([4]; first compound 0.3162 µM)	relative viability ([4]; first compound 1 µM)
201T	0.772	0.662	0.708	0.705	0.797	0.78	0.716	0.71	1.21	1.22	1.26	1.19	1.17	1.05	1.1	0.986	1.03	1.02
A549	–	–	–	–	–	–	–	–	1.16	1.35	1.28	1.08	1.06	0.681	0.624	0.444	0.505	0.647
A-427	0.58	0.466	0.491	0.49	0.829	0.876	0.834	0.852	0.941	0.955	0.913	0.973	1.02	1.13	1.05	1.15	1.1	1.13
ABC-1	0.491	0.504	0.474	0.593	1.04	1.45	0.983	1.18	–	–	–	–	–	0.818	0.73	0.847	0.685	0.526
BEN	0.306	0.299	0.314	0.326	0.573	0.61	0.523	0.544	0.0596	0.0766	0.0603	0.0534	0.0741	0.9	1.08	0.772	0.767	0.967
CAL-12T	0.553	0.492	0.432	0.845	0.794	0.788	0.751	0.655	1.24	1.22	1.3	1.33	1.06	0.878	0.784	0.819	0.802	0.715
COR-L23	0.772	0.74	0.802	0.858	0.434	0.379	0.433	0.52	0.838	1.05	1.01	0.968	1.03	0.891	0.946	0.884	0.805	0.829
COR-L 105	0.688	0.579	0.73	0.713	0.889	0.952	0.895	0.906	0.613	0.715	0.74	0.67	0.654	1.1	0.848	1.29	0.747	0.81
Calu-6	–	–	–	–	–	–	–	–	0.75	0.797	0.827	0.86	0.983	0.88	1.06	0.842	0.952	0.935
ChaGo-K-1	0.444	0.481	0.52	0.525	0.627	0.787	0.701	0.742	1.1	0.88	0.951	0.899	1.14	–	–	–	–	–
EBC-1	–	–	–	–	–	–	–	–	0.393	0.433	0.358	0.235	0.188	0.947	0.776	0.837	0.732	0.632
EKVX	0.648	0.768	0.557	0.662	0.611	0.664	0.457	0.513	0.882	0.858	0.927	0.908	0.853	0.997	0.952	1.03	0.954	0.976
EMC-BAC-2	0.378	0.384	0.355	0.461	0.478	0.485	0.658	0.483	1.17	1.18	1.15	1.07	1.13	0.82	0.852	0.837	0.828	0.837
EPLC-272H	0.289	–	0.277	0.32	0.623	0.427	0.477	0.358	1.24	1.21	0.932	1.16	0.906	1.24	1.21	1.03	1.17	1.39
H3255	0.593	0.622	0.443	0.568	0.819	0.763	0.733	0.811	0.526	0.571	0.429	0.407	0.466	0.958	1.09	0.903	0.888	0.843
HARA	0.53	0.63	0.468	0.485	0.333	0.767	0.304	0.439	1.09	1.2	1.14	1.16	1.14	0.861	0.961	0.973	0.947	1.11
HCC-15	0.727	0.696	0.7	0.758	0.703	0.729	0.605	0.667	0.72	0.752	0.721	0.634	0.653	0.798	0.932	0.856	0.816	0.828
HCC-44	0.534	0.61	0.476	0.505	1.02	1.11	1.04	1.07	0.938	0.956	0.944	0.851	0.981	0.608	0.692	0.636	0.652	0.71
HCC-78	0.39	0.372	0.423	0.384	0.382	0.455	0.436	0.459	0.661	0.826	0.678	0.654	0.71	0.502	0.496	0.5	0.424	0.546
HCC-366	0.879	0.839	0.729	0.784	0.301	0.28	0.356	0.344	0.967	1.1	1.01	1.06	1.02	0.598	0.761	0.498	0.522	0.668
HCC-827	0.798	0.794	0.775	0.822	0.806	1	1.01	0.789	1.03	0.985	1.06	1.03	1.04	0.879	1.03	0.97	0.942	0.962
HOP-62	0.888	0.87	0.808	0.92	0.682	0.661	0.591	0.694	0.997	0.942	1.04	0.951	1.05	1.07	0.942	1.03	0.921	0.878

Cell Line	relative viability ([1]; first compound 0.5 µM)	relative viability ([1]; first compound 5 µM)	relative viability ([1]; first compound 15.81 µM)	relative viability ([1]; first compound 50 µM)	relative viability ([2]; first compound 0.5 µM)	relative viability ([2]; first compound 5 µM)	relative viability ([2]; first compound 15.81 µM)	relative viability ([2]; first compound 50 µM)	relative viability ([3]; first compound 0.01 µM)	relative viability ([3]; first compound 0.03162 µM)	relative viability ([3]; first compound 0.1 µM)	relative viability ([3]; first compound 0.3162 µM)	relative viability ([3]; first compound 1 µM)	relative viability ([4]; first compound 0.01 µM)	relative viability ([4]; first compound 0.03162 µM)	relative viability ([4]; first compound 0.1 µM)	relative viability ([4]; first compound 0.3162 µM)	relative viability ([4]; first compound 1 µM)
IA-LM	–	–	–	–	0.874	1.03	0.389	0.553	0.76	0.66	0.929	0.576	0.313	0.62	0.554	0.658	0.518	0.464
LC-2-ad	0.918	0.865	0.8	0.902	0.695	0.737	0.707	0.656	0.56	0.417	0.579	0.419	0.487	0.878	0.919	0.836	0.849	0.875
LCLC-97TM1	0.699	0.469	0.505	0.677	0.941	0.878	–	0.763	–	0.337	0.475	0.641	0.328	–	0.159	0.169	0.229	0.21
LCLC-103H	0.366	0.505	0.504	0.537	0.781	0.804	0.764	0.781	–	–	–	–	–	1.13	1.09	1.01	1.04	1.15
LK-2	0.206	0.205	0.225	0.218	0.341	0.346	0.343	0.353	0.787	0.927	0.77	0.872	0.889	0.7	0.715	0.422	0.746	0.559
LOU-NH91	0.717	0.729	0.729	0.801	0.899	0.936	0.917	0.903	0.691	0.709	0.697	0.632	0.572	0.953	0.987	0.963	0.88	0.886
LU99A	0.256	0.29	0.347	0.322	0.512	0.54	0.488	0.553	0.714	0.959	0.841	0.776	0.807	0.473	0.524	0.551	0.579	0.548
LXF-289	0.923	0.909	0.761	0.802	0.82	0.92	0.84	0.7	0.978	0.949	0.935	0.886	0.926	0.971	0.945	0.96	0.882	0.951
NCI-H358	0.832	0.899	0.796	0.908	–	0.644	0.528	0.667	–	–	–	–	–	0.812	0.877	0.667	0.631	0.562
NCI-H522	0.976	0.744	0.687	0.831	0.911	0.851	0.963	0.977	–	–	–	–	–	–	–	–	–	–
NCI-H650	0.505	0.591	0.493	0.589	0.541	0.531	0.518	0.492	–	–	–	–	–	0.714	0.79	0.959	0.766	0.789
NCI-H661	0.662	0.704	0.761	0.686	0.82	0.843	0.784	0.774	–	–	–	–	–	0.566	0.658	0.508	0.546	0.576
NCI-H1299	–	–	–	–	–	–	–	–	1.04	1.06	1.02	1.03	1.08	0.95	1.06	0.948	0.941	1.02
NCI-H1563	0.729	0.721	0.763	0.791	–	–	–	–	–	–	–	–	–	1.18	1.07	1.15	1.08	0.96
NCI-H1623	0.422	0.383	0.368	0.349	–	–	–	–	–	–	–	–	–	–	–	–	–	–
NCI-H1648	0.275	0.282	–	0.283	0.283	0.6	0.408	0.348	–	–	–	–	–	–	–	–	–	–
NCI-H1650	0.542	0.512	0.498	0.73	0.605	0.449	0.428	0.571	1.2	1.04	1.03	0.894	1.13	–	–	–	–	–
NCI-H1703	–	–	–	–	–	–	–	–	1.12	0.959	0.857	1.04	0.505	0.939	0.836	0.594	0.449	0.358
NCI-H1792	0.694	0.71	0.553	0.624	–	–	–	–	0.722	0.501	0.619	0.62	0.604	0.523	0.567	0.464	0.491	0.461
NCI-H2170	0.688	0.592	0.635	0.72	0.842	0.731	0.651	0.601	0.613	0.585	0.64	0.493	0.529	–	–	–	–	–
NCI-H2342	0.584	0.587	0.604	0.566	0.72	0.736	0.709	0.8	–	–	–	–	–	–	–	–	–	–
SW 900	0.194	0.539	0.545	0.609	–	0.461	–	0.589	–	–	–	–	–	–	–	–	–	–
